Measurements published in patent EP2435433B1, “(DIHYDRO)IMIDAZOISO[5,1-A]QUINOLINES AS FSH RECEPTOR AGONISTS FOR THE TREATMENT OF FERTILITY DISORDERS” (Merck Sharp & Dohme B.V., priority 2009, dated 2010).
pEC50: −log10 of the molar value.

The compounds below were run against T1, human FSH receptor (Homo sapiens, UniProt P23945) (assay: Agonistic activity of compounds at the human FSH receptor expressed in CHO cells, CRE/luciferase reporter (hFSHRago (CHO luc))). Conditions: not given.
T1 construct: expressed in transfected cells; host or cells: Chinese Hamster Ovary (CHO) cells, stably transfected, cotransfected with CRE/promotor-firefly luciferase reporter
T1 sequence (P23945 18-695): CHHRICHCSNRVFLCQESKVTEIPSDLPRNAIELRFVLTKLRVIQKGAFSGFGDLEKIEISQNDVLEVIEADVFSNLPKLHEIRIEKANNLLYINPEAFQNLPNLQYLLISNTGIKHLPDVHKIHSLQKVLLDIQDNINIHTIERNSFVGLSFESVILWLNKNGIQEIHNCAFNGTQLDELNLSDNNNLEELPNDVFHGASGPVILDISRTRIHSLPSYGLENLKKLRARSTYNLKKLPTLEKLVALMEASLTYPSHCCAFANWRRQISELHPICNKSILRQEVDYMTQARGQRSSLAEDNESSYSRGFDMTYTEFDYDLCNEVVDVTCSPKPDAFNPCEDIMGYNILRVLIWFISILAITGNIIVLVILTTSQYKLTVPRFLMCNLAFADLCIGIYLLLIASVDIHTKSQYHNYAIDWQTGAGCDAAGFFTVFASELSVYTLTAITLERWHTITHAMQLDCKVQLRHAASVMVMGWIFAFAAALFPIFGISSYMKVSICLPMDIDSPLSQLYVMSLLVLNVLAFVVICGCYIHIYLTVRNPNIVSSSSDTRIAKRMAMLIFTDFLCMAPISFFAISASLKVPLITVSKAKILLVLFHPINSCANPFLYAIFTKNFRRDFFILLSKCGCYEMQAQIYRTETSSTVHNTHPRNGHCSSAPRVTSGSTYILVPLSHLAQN
Type: cell-based
From the text: The term EC50 means the concentration of the test compound that elicits half-maximal (50 %) stimulation compared to the compound's maximally attainable effect. The values can be determined e.g. in a cell line transfected with a FSH receptor gene and cotransfected with a cAMP responsive element/promoter directing the expression of a reporter gene. Values can be determined using a software program such as MathIQ (version 2.0, ID Business Solutions Limited).
Agonistic activity of the compounds at the human FSH receptor was determined in Chinese Hamster Ovary (CHO) cells stably transfected with the human FSH receptor and cotransfected with a cAMP responsive element (CRE)/promotor directing the expression of a firefly luciferase reporter gene. Binding of the compounds to the Gs protein-coupled FSH receptor will result in an increase of cAMP, which in turn will induce an increased transactivation of the luciferase reporter. Cells (7,500 cells/well of a 384 well plate) were incubated in Dulbecco' minimal essential F12 modified medium (Invitrogen), supplemented with 1 µg/ml bovine insulin, 5 µg/ml human apo-transferrin, 80 U/ml penicillin G and 80 µg/ml streptomycin with the test compounds (concentration between 0.0316 nM and 10.0 µM) in duplicate in a humidified atmosphere (95%) at 5-7% CO2 and 37°C. The final concentration of DMSO was 1%. After 4 hours of incubation, plates were allowed to adjust to room temperature for 1 hour. Then, Luclite (PerkinElmer) solution was added to the wells and cells were allowed to lyse for at least 1 hour at room temperature. Subsequently, luciferase activity was measured in a luminescence counter. The signal is expressed as counts per second (cps). The EC50 (concentration of the test compound that elicits half-maximal (50 %) luciferase stimulation compared to the compound's maximally attainable effect) and efficacy values (maximal effect of the test compound as percentage of the maximal effect of recombinant human FSH) of the compounds were determined using the software program MathIQ (version 2.0, ID Business Solutions Limited). EC50 data are indicated at the synthesis examples.

Structure (SMILES) | pEC50
COc1cc2c(cc1-c1cccnc1)-c1c(-c3cccs3)nc(C(=O)N(C)C(C)(C)C)n1CC2 [Example 2a] | 9.00

Same assay, conditions: CHO cells stably transfected with the human FSH receptor and CRE/firefly luciferase reporter; 4 hours of incubation; half-maximal stimulation relative to the compound's own maximal effect; read-out: hFSHRago (CHO luc) EC50

pEC50 | Structure (SMILES)
7.44 | COc1cc2c(cc1Br)-c1c(-c3cccs3)nc(C(=O)N(C)C(C)(C)C)n1CC2 [Example 1j, 9-Bromo-8-methoxy-1-thiophen-2-yl-5,6-dihydro-imidazo[5,1-a]isoquinoline-3-carboxylic acid tert-butyl-methyl-amide]
7.89 | COc1cc2c(cc1-c1ccccn1)-c1c(-c3cccs3)nc(C(=O)N(C)C(C)(C)C)n1CC2 [Example 2b, 8-Methoxy-9-pyridin-2-yl-1-thiophen-2-yl-5,6-dihydro-imidazo[5,1-a]isoquinoline-3-carboxylic acid tert-butyl-methyl-amide]
8.52 | COc1cc2c(cc1-c1cccc(F)n1)-c1c(-c3cccs3)nc(C(=O)N(C)C(C)(C)C)n1CC2 [Example 2c, 9-(6-Fluoro-pyrjdin-2-yl)-8-methoxy-1-thiophen-2-yl-5,6-dihydro-imidazo[5,1-a]iso-quinoline-3-carboxylic acid tert-butyl-methyl-amide]
7.00 | COc1cc2c(cc1-c1cccc(N3CCOCC3)n1)-c1c(-c3cccs3)nc(C(=O)N(C)C(C)(C)C)n1CC2 [Example 2d, 8-Methoxy-9-(6-morpholin-4-yl-pyridin-2-yl)-1-thiophen-2-yl-5,6-dihydro-imidazo[5,1-a]isoquinoline-3-carboxylic acid tert-butyl-methyl-amide]
7.19 | COc1cc2c(cc1-c1cccc(C(F)(F)F)c1)-c1c(-c3cccs3)nc(C(=O)N(C)C(C)(C)C)n1CC2 [Example 2e, 8-Methoxy-1-thiophen-2-yl-9-(3-trifluoromethyl-phenyl)-5,6-dihydro-imidazo[5,1-a]isoquinoline-3-carboxylic acid tert-butyl-methyl-amide]
9.00 | COc1cc2c(cc1-c1cccc(NC(C)=O)c1)-c1c(-c3cccs3)nc(C(=O)N(C)C(C)(C)C)n1CC2 [Example 2f, 9-(3-Acetylamino-phenyl)-8-methoxy-1-thiophen-2-yl-5,6-dihydro-imidazo[5,1-a]iso-quinoline-3-carboxylic acid tert-butyl-methyl-amide]
8.70 | COc1cc2c(cc1-c1cccc(-n3cccn3)c1)-c1c(-c3cccs3)nc(C(=O)N(C)C(C)(C)C)n1CC2 [Example 2g, 8-Methoxy-9-(3-pyrazol-1-yl-phenyl)-1-thiophen-2-yl-5,6-dihydro-imidazo[5,1-a]iso-quinoline-3-carboxylic acid tert-butyl-methyl-amide]
8.70 | COc1cc2c(cc1-c1cccc(N3CCOCC3)c1)-c1c(-c3cccs3)nc(C(=O)N(C)C(C)(C)C)n1CC2 [Example 2h, 8-Methoxy-9-(3-morpholin-4-yl-phenyl)-1-thiophen-2-yl-5,6-dihydro-imidazo[5,1-a]iso-quinoline-3-carboxylic acid tert-butyl-methyl-amide]
8.52 | COc1cc2c(cc1-c1cccc(F)c1)-c1c(-c3cccs3)nc(C(=O)N(C)C(C)(C)C)n1CC2 [Example 2i, 9-(3-Fluoro-phenyl)-8-methoxy-1-thiophen-2-yl-5,6-dihydro-imidazo[5,1-a]isoquinoline-3-carboxylic acid tert-butyl-methyl-amide]
8.30 | COc1cc2c(cc1-c1ccccc1C#N)-c1c(-c3cccs3)nc(C(=O)N(C)C(C)(C)C)n1CC2 [Example 2j, 9-(2-Cyano-phenyl)-8-methoxy-1-thiophen-2-yl-5,6-dihydro-imidazo[5,1-a]isoquinoline-3-carboxylic acid tert-butyl-methyl-amide]
8.10 | COc1cc2c(cc1-c1cccc(N)c1)-c1c(-c3cccs3)nc(C(=O)N(C)C(C)(C)C)n1CC2 [Example 2k, 9-(3-Amino-phenyl)-8-methoxy-1-thiophen-2-yl-5,6-dihydro-imidazo[5,1-a]isoquinoline-3-carboxylic acid tert-butyl-methyl-amide]
8.05 | COc1cc2c(cc1-c1cccc(N(C)C)c1)-c1c(-c3cccs3)nc(C(=O)N(C)C(C)(C)C)n1CC2 [Example 2l, 9-(3-Dimethylamino-phenyl)-8-methoxy-1-thiophen-2-yl-5,6-dihydro-imidazo[5,1-a]iso-quinoline-3-carboxylic acid tert-butyl-methyl-amide]
8.05 | COc1cc2c(cc1-c1c(C)noc1C)-c1c(-c3cccs3)nc(C(=O)N(C)C(C)(C)C)n1CC2 [Example 2m, 9-(3,5-Dimethyl-isoxazol-4-yl)-8-methoxy-1-thiophen-2-yl-5,6-dihydro-imidazo[5,1-a]iso-quinoline-3-carboxylic acid tert-butyl-methyl-amide]
7.96 | COc1cc2c(cc1-c1cccc(C(=O)N(C)C)c1)-c1c(-c3cccs3)nc(C(=O)N(C)C(C)(C)C)n1CC2 [Example 2n, 9-(3-Dimethylcarbamoyl-phenyl)-8-methoxy-1-thiophen-2-yl-5,6-dihydro-imidazo[5,1-a]iso-quinoline-3-carboxylic acid tert-butyl-methyl-amide]
7.85 | COc1cc2c(cc1-c1cccc(N3CCN(C(=O)OC(C)(C)C)CC3)c1)-c1c(-c3cccs3)nc(C(=O)N(C)C(C)(C)C)n1CC2 [Example 2o]
7.82 | COc1cc2c(cc1-c1cccc(S(C)(=O)=O)c1)-c1c(-c3cccs3)nc(C(=O)N(C)C(C)(C)C)n1CC2 [Example 2p, 9-(3-Methanesulfonyl-phenyl)-8-methoxy-1-thiophen-2-yl-5,6-dihydro-imidazo[5,1-a]iso-quinoline-3-carboxylic acid tert-butyl-methyl-amide]
7.30 | COc1ccccc1-c1cc2c(cc1OC)CCn1c(C(=O)N(C)C(C)(C)C)nc(-c3cccs3)c1-2 [Example 2q, 8-Methoxy-9-(2-methoxy-phenyl)-1-thiophen-2-yl-5,6-dihydro-imidazo [5,1-a]isoquinoline-3-carboxylic acid tert-butyl-methyl-amide]
6.78 | COc1cc2c(cc1-c1ccc3c(c1)OCO3)-c1c(-c3cccs3)nc(C(=O)N(C)C(C)(C)C)n1CC2 [Example 2r, 9-Benzo[1,3]dioxol-5-yl-8-methoxy-1-thiophen-2-yl-5,6-dihydro-imidazo[5,1-a]iso-quinoline-3-carboxylic acid tert-butyl-methyl-amide]
7.55 | C=Cc1cc2c(cc1OC)CCn1c(C(=O)N(C)C(C)(C)C)nc(-c3cccs3)c1-2 [Example 3b, 8-Methoxy-1-thiophen-2-yl-9-vinyl-5,6-dihydro-imidazo[5,1-a]isoquinoline-3-carboxylic acid tert-butyl-methyl-amide]
8.52 | COc1cc2c(cc1C(=O)Nc1nncs1)-c1c(-c3cccs3)nc(C(=O)N(C)C(C)(C)C)n1CC2 [Example 3e, 8-Methoxy-1-thiophen-2-yl-5,6-dihydro-imidazo[5,1-a]isoquinoline-3,9-dicarboxylic acid 3-(tert-butyl-methyl-amide) 9-[1,3,4]thiadiazol-2-ylamide]
7.24 | CCc1nnc(NC(=O)c2cc3c(cc2OC)CCn2c(C(=O)N(C)C(C)(C)C)nc(-c4cccs4)c2-3)s1 [Example 4, 8-Methoxy-1-thiophen-2-yl-5,6-dihydro-imidazo[5,1-a]isoquinoline-3,9-dicarboxylic acid 3-(tert-butyl-methyl-amide) 9-[(5-ethyl-[1,3,4]thiadiazol-2-yl)-amide]]
7.74 | COc1cc2c(cc1C(=O)NC(C)C)-c1c(-c3cccs3)nc(C(=O)N(C)C(C)(C)C)n1CC2 [Example 5, 8-Methoxy-1-thiophen-2-yl-5,6-dihydro-imidazo[5,1-a]isoquinoline-3,9-dicarboxylic acid 3-(tert-butyl-methyl-amide) 9-isopropylamide]
